Laboratory results taken from US7696218B2, “Substituted 1,3-dialkyl-2,4-dioxo-6-(arylamino)-1,2,3,4-tetrahydropyrimidine-5-hydroxamic acid inhibitors of MAPK/ERK kinase” (Takeda San Diego, Inc., priority 2006, dated 2010).

Molecular target: T1, MEK2 (Homo sapiens, UniProt P36507, S222E/S226D)
T1 construct: 6-histidine tag (N); made in house; host or cells: Spodoptera frugiperda Sf9 (baculovirus) for MEK2; E. coli for ERK1
Assay: MEK2 inhibition assay, fluorescence polarization with IMAP beads (ERK1 / FI-Erktide substrate)
Type: biochemical
Conditions: 4 nM MEK2, 25 nM ERK1, 400 μM ATP, 500 nM FI-Erktide, 1% DMSO, 22 min at room temperature; values given as ranges; read-out: IC50 of Exemplified Compounds Against MEK2
Source text: For MEK2, DNA encoding residues 1-400 (S222E/S226D) of the full-length sequence of the human enzyme may be amplified by PCR and cloned into pFastbac (Invitrogen), which incorporates a 6-histidine tag at the N-terminus. The two mutations, S222E and S226D, may be obtained by quick change PCR. SEQ ID NO: 3 corresponds to residues 1-400 with mutations S222E/S226D, and with the N-terminal 6-histidine tag and SEQ ID NO: 4 is the DNA sequence that was used to encode SEQ ID NO: 3.
Recombinant baculovirus incorporating the MEK1 and MEK2 constructs may be generated by transposition using the Bac-to-Bac system (Invitrogen). High-titer viral stocks may be generated by infection of Spodoptera frugiperda Sf9 cells; the expression of recombinant protein may be carried out by infection of Spodoptera frugiperda Sf9 (Invitrogen) in 5L Wave Bioreactors (Wave Biotech).
Recombinant protein may be isolated from cellular extracts by passage over ProBond resin (Invitrogen). Partially purified extracts of all MEK1 may then be further purified by high pressure liquid chromatography over a SEC2000 gel filtration resin. The purity of MEK1 and MEK2 proteins may be determined on denaturing SDS-PAGE gel. Purified MEK1 and MEK2 may then be concentrated to a final concentration of 3.4 mg/ml and 5.4 mg/ml, respectively. The proteins may be either stored at −78° C. in a buffer containing 50 mM TRIS-HCl pH 7.6, 250 mM NaCl, 0.1 mM EDTA and 0.125 mM TCEP or at −20° C. in the presence of glycerol (final concentration of glycerol at 50%).
The inhibitory properties of compounds relative to MEK1 or MEK2 may be determined using a black 384-well-plate format under the following reaction conditions: 50 mM HEPES pH 7.3, 10 mM NaCl, 10 mM MgCl2, 0.01% Brij35, 1 nM MEK1 or 4 nM MEK2, 25 nM ERK1, 400 μM ATP, 500 nM IPTTPITTYFFFK-5FAM-COOH (FI-Erktide), and 1% DMSO. Reaction product is determined quantitatively by fluorescent polarization using progressive IMAP beads from Molecular Devices.
The assay reaction may be initiated as follows: 2 μl of the mixture of 1.5 μM FI-Erktide and 75 nM ERK with 2 μl of inhibitor (2 fold serial dilutions for 11 data points for each inhibitor) containing 3% DMSO were added to each well of the plate, followed by the addition of 2 μl of the mixture of 3 nM MEK1 or 12 nM MEK2 and 1200 μM ATP to initiate the reaction (final enzyme concentration was 1 nM for MEK1 or 4 nM for MEK2). The reaction mixture may then be incubated at room temperature for 22 min, and quenched and developed by addition of 20 μl of 1:200 dilution of progressive IMAP beads (Molecular Devices) in 80% buffer A, 20% bufferB and 0.003% Tween 20. Fluorescence polarization of the resulting reaction mixtures may be measured after a 1 hour incubation at room temperature.
IC50 values may be calculated by non-linear curve fitting of the compound concentrations and fluorescence polarization signal to the standard IC50 equation.

T1 sequence (P36507 with tags, fused parts or gaps S222E/S226D): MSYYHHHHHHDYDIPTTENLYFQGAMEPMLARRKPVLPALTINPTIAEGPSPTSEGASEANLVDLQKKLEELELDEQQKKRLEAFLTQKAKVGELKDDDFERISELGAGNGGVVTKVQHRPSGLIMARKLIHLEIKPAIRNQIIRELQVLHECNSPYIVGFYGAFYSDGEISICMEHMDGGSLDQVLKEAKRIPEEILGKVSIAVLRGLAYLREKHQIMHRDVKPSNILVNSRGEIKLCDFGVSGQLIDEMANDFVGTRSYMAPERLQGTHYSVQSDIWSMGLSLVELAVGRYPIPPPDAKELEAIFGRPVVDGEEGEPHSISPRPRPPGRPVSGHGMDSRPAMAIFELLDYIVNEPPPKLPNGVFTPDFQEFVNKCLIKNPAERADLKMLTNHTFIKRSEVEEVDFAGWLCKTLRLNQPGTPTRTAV

Structure (SMILES)	IC50 [µM]
CN(C)NC(=O)c1c(Nc2ccc(I)cc2F)n(C)c(=O)n(C)c1=O [Example 45, 6-(2-Fluoro-4-iodophenylamino)-N′,N′,1,3-tetramethyl-2,4-dioxo-1,2,3,4-tetrahydropyrimidine-5-carbohydrazide]	0.501 to 2.5
Cn1c(Nc2ccc(I)cc2F)c(C(=O)NOC[C@H](O)CO)c(=O)n(C)c1=O [Example 2, (R)-N-(2,3-dihydroxypropoxy)-6-(2-fluoro-4-iodophenylamino)-1,3-dimethyl-2,4-dioxo-1,2,3,4-tetrahydropyrimidine-5-carboxamide]	≤ 0.5
Cn1c(Nc2ccc(I)cc2F)c(C(=O)NOCC2CC2)c(=O)n(C)c1=O [Example 4, N-(cyclopropylmethoxy)-6-(2-fluoro-4-iodophenylamino)-1,3-dimethyl-2,4-dioxo-1,2,3,4-tetrahydropyrimidine-5-carboxamide]	0.501 to 2.5
COCCOCC(=O)c1c(Nc2ccc(I)cc2F)n(C)c(=O)n(C)c1=O [Example 13, 6-(2-Fluoro-4-iodophenylamino)-5-(2-(2-methoxyethoxy)acetyl)-1,3-dimethylpyrimidine-2,4(1H,3H)-dione]	2.5 to 25
CCn1c(=O)c(C(=O)NOCCO)c(Nc2ccc(I)cc2F)n(C)c1=O [Example 48, 3-Ethyl-6-(2-fluoro-4-iodophenylamino)-N-(2-hydroxyethoxy)-1-methyl-2,4-dioxo-1,2,3,4-tetrahydropyrimidine-5-carboxamide]	> 25
Cn1c(Nc2ccc(I)cc2F)c(C(=O)NOC[C@@H](O)CO)c(=O)n(C)c1=O [Example 37, (S)-N-(2,3-Dihydroxypropoxy)-6-(2-fluoro-4-iodophenylamino)-1,3-dimethyl-2,4-dioxo-1,2,3,4-tetrahydropyrimidine-5-carboxamide]	≤ 0.5
Cc1cc(I)ccc1Nc1c(C(=O)NOC[C@H](O)CO)c(=O)n(C)c(=O)n1C [Example 38, (R)-N-(2,3-Dihydroxypropoxy)-6-(4-iodo-2-methylphenylamino)-1,3-dimethyl-2,4-dioxo-1,2,3,4-tetrahydropyrimidine-5-carboxamide]	≤ 0.5
Cn1c(Nc2cc(F)c(I)cc2F)c(C(=O)NOC[C@H](O)CO)c(=O)n(C)c1=O [Example 40, (R)-6-(2,5-Difluoro-4-iodophenylamino)-N-(2,3-dihydroxypropoxy)-1,3-dimethyl-2,4-dioxo-1,2,3,4-tetrahydropyrimidine-5-carboxamide]	> 25
Cn1c(Nc2ccc(I)cc2F)c(C(=O)NN)c(=O)n(C)c1=O [Example 9, 6-(2-Fluoro-4-iodophenylamino)-1,3-dimethyl-2,4-dioxo-1,2,3,4-tetrahydropyrimidine-5-carbohydrazide]	≤ 0.5
Cn1c(Nc2ccc(I)cc2F)c(C(=O)N2CCN(CCO)CC2)c(=O)n(C)c1=O [Example 44, 6-(2-Fluoro-4-iodophenylamino)-5-(4-(2-hydroxyethyl)piperazine-1-carbonyl)-1,3-dimethylpyrimidine-2,4(1H,3H)-dione]	> 25
Cn1c(Nc2ccc(I)cc2F)c(C(=O)NOC[C@@H](O)CCO)c(=O)n(C)c1=O [Example 57, 6-(2-Fluoro-4-iodo-phenylamino)-1,3-dimethyl-2,4-dioxo-1,2,3,4-tetrahydropyrimidine-5-carboxylic acid ((S)-2,4-dihydroxy-butoxy)-amide]	≤ 0.5
Cn1c(Nc2ccc(I)cc2F)c(C(=O)N2CC(O)C2)c(=O)n(C)c1=O [Example 58, 6-(2-Fluoro-4-iodo-phenylamino)-5-(3-hydroxy-azetidine-1-carbonyl)-1,3-dimethyl-1H-pyrimidine-2,4-dione]	2.5 to 25
Cn1c(Nc2ccc(I)cc2F)c(C(=O)NOC(CO)CO)c(=O)n(C)c1=O [Example 28, N-(1,3-dihydroxypropan-2-yloxy)-6-(2-fluoro-4-iodophenylamino)-1,3-dimethyl-2,4-dioxo-1,2,3,4-tetrahydropyrimidine-5-carboxamide]	≤ 0.5
